In ChEMBL document CHEMBL5226376, “A Streptomyces Cytochrome P450 Enzyme Catalyzes Regiospecific C2-Guaninylation for the Synthesis of Diverse Guanitrypmycin Analogs” (J Nat Prod, 2023):
The source made the active and inactive calls. The calls are words filed in the database; no cut-off is given here.

What follows are compounds tested on Klebsiella pneumoniae (assay: Antibacterial activity against Klebsiella pneumoniae DSM26371 assessed as inhibition of bacterial growth incubated for overnight by disk diffusion method).
Type: functional, organism-based
In the case of `Nc1nc2[nH]c(-c3[nH]c4ccccc4c3C[C@@H]3NC(=O)[C@H](Cc4c[nH]c5ccccc45)NC3=O)nc2c(=O)[nH]1`, the Activity is reported as “inactive”.
For `Nc1nc2[nH]c(-c3[nH]c4ccccc4c3C[C@@H]3NC(=O)/C(=C/c4ccccc4)NC3=O)nc2c(=O)[nH]1`, the Activity was “inactive”.
For `Nc1nc2[nH]c(-c3[nH]c4ccccc4c3C[C@@H]3NC(=O)[C@H](Cc4ccc(O)cc4)NC3=O)nc2c(=O)[nH]1`, the Activity was “inactive”.
`Nc1nc2[nH]c(-c3[nH]c4ccccc4c3C[C@@H]3NC(=O)[C@H](Cc4ccccc4)NC3=O)nc2c(=O)[nH]1` was tested, and the Activity was “inactive”.
`Nc1nc2[nH]c(-c3[nH]c4ccccc4c3C[C@@H]3NC(=O)/C(=C/c4ccc(O)cc4)NC3=O)nc2c(=O)[nH]1` was tested, and the Activity was “inactive”.

These compounds were tested on Pseudomonas aeruginosa (assay: Antibacterial activity against Pseudomonas aeruginosa ATCC 27853 assessed as inhibition of bacterial growth incubated for overnight by disk diffusion method).
Type: functional, organism-based
`Nc1nc2[nH]c(-c3[nH]c4ccccc4c3C[C@@H]3NC(=O)[C@H](Cc4c[nH]c5ccccc45)NC3=O)nc2c(=O)[nH]1` was tested, and the Activity was “inactive”.
With `Nc1nc2[nH]c(-c3[nH]c4ccccc4c3C[C@@H]3NC(=O)/C(=C/c4ccccc4)NC3=O)nc2c(=O)[nH]1` the Activity was “inactive”.
`Nc1nc2[nH]c(-c3[nH]c4ccccc4c3C[C@@H]3NC(=O)[C@H](Cc4ccc(O)cc4)NC3=O)nc2c(=O)[nH]1` was tested, and the Activity was “inactive”.
For `Nc1nc2[nH]c(-c3[nH]c4ccccc4c3C[C@@H]3NC(=O)[C@H](Cc4ccccc4)NC3=O)nc2c(=O)[nH]1`, the Activity was “inactive”.
In the case of `Nc1nc2[nH]c(-c3[nH]c4ccccc4c3C[C@@H]3NC(=O)/C(=C/c4ccc(O)cc4)NC3=O)nc2c(=O)[nH]1`, the Activity is reported as “inactive”.

The compounds below were run on Staphylococcus aureus (assay: Antibacterial activity against Staphylococcus aureus ATCC 29213 assessed as inhibition of bacterial growth incubated for overnight by disk diffusion method).
Type: functional, organism-based
With `Nc1nc2[nH]c(-c3[nH]c4ccccc4c3C[C@@H]3NC(=O)[C@H](Cc4c[nH]c5ccccc45)NC3=O)nc2c(=O)[nH]1` the Activity was “inactive”.
`Nc1nc2[nH]c(-c3[nH]c4ccccc4c3C[C@@H]3NC(=O)/C(=C/c4ccccc4)NC3=O)nc2c(=O)[nH]1` was tested, and the Activity was “inactive”.
With `Nc1nc2[nH]c(-c3[nH]c4ccccc4c3C[C@@H]3NC(=O)[C@H](Cc4ccc(O)cc4)NC3=O)nc2c(=O)[nH]1` the Activity was “inactive”.
With `Nc1nc2[nH]c(-c3[nH]c4ccccc4c3C[C@@H]3NC(=O)[C@H](Cc4ccccc4)NC3=O)nc2c(=O)[nH]1` the Activity was “inactive”.
In the case of `Nc1nc2[nH]c(-c3[nH]c4ccccc4c3C[C@@H]3NC(=O)/C(=C/c4ccc(O)cc4)NC3=O)nc2c(=O)[nH]1`, the Activity is reported as “inactive”.

Each compound was assayed on Staphylococcus delphini (assay: Antibacterial activity against Staphylococcus delphini DSM20771 assessed as inhibition of bacterial growth incubated for overnight by disk diffusion method).
Type: functional, organism-based
`Nc1nc2[nH]c(-c3[nH]c4ccccc4c3C[C@@H]3NC(=O)[C@H](Cc4c[nH]c5ccccc45)NC3=O)nc2c(=O)[nH]1` was tested, and the Activity was “inactive”.
`Nc1nc2[nH]c(-c3[nH]c4ccccc4c3C[C@@H]3NC(=O)/C(=C/c4ccccc4)NC3=O)nc2c(=O)[nH]1` was tested, and the Activity was “inactive”.
With `Nc1nc2[nH]c(-c3[nH]c4ccccc4c3C[C@@H]3NC(=O)[C@H](Cc4ccc(O)cc4)NC3=O)nc2c(=O)[nH]1` the Activity was “inactive”.
With `Nc1nc2[nH]c(-c3[nH]c4ccccc4c3C[C@@H]3NC(=O)[C@H](Cc4ccccc4)NC3=O)nc2c(=O)[nH]1` the Activity was “inactive”.
For `Nc1nc2[nH]c(-c3[nH]c4ccccc4c3C[C@@H]3NC(=O)/C(=C/c4ccc(O)cc4)NC3=O)nc2c(=O)[nH]1`, the Activity was “inactive”.

Each compound was assayed on Bacillus subtilis (assay: Antibacterial activity against Bacillus subtilis BSB01 assessed as inhibition of bacterial growth incubated for overnight by disk diffusion method).
Type: functional, organism-based
In the case of `Nc1nc2[nH]c(-c3[nH]c4ccccc4c3C[C@@H]3NC(=O)[C@H](Cc4c[nH]c5ccccc45)NC3=O)nc2c(=O)[nH]1`, the Activity is reported as “inactive”.
In the case of `Nc1nc2[nH]c(-c3[nH]c4ccccc4c3C[C@@H]3NC(=O)/C(=C/c4ccccc4)NC3=O)nc2c(=O)[nH]1`, the Activity is reported as “inactive”.
For `Nc1nc2[nH]c(-c3[nH]c4ccccc4c3C[C@@H]3NC(=O)[C@H](Cc4ccc(O)cc4)NC3=O)nc2c(=O)[nH]1`, the Activity was “inactive”.
For `Nc1nc2[nH]c(-c3[nH]c4ccccc4c3C[C@@H]3NC(=O)[C@H](Cc4ccccc4)NC3=O)nc2c(=O)[nH]1`, the Activity was “inactive”.
In the case of `Nc1nc2[nH]c(-c3[nH]c4ccccc4c3C[C@@H]3NC(=O)/C(=C/c4ccc(O)cc4)NC3=O)nc2c(=O)[nH]1`, the Activity is reported as “inactive”.

These compounds were tested on Escherichia coli (assay: Antibacterial activity against Escherichia coli ATCC 25922 assessed as inhibition of bacterial growth incubated for overnight by disk diffusion method).
Type: functional, organism-based
With `Nc1nc2[nH]c(-c3[nH]c4ccccc4c3C[C@@H]3NC(=O)[C@H](Cc4c[nH]c5ccccc45)NC3=O)nc2c(=O)[nH]1` the Activity was “inactive”.
With `Nc1nc2[nH]c(-c3[nH]c4ccccc4c3C[C@@H]3NC(=O)/C(=C/c4ccccc4)NC3=O)nc2c(=O)[nH]1` the Activity was “inactive”.
For `Nc1nc2[nH]c(-c3[nH]c4ccccc4c3C[C@@H]3NC(=O)[C@H](Cc4ccc(O)cc4)NC3=O)nc2c(=O)[nH]1`, the Activity was “inactive”.
`Nc1nc2[nH]c(-c3[nH]c4ccccc4c3C[C@@H]3NC(=O)[C@H](Cc4ccccc4)NC3=O)nc2c(=O)[nH]1` was tested, and the Activity was “inactive”.
With `Nc1nc2[nH]c(-c3[nH]c4ccccc4c3C[C@@H]3NC(=O)/C(=C/c4ccc(O)cc4)NC3=O)nc2c(=O)[nH]1` the Activity was “inactive”.

The compounds below were run on Niallia circulans (assay: Antibacterial activity against Bacillus circulans NRRLNRS-1108 assessed as inhibition of bacterial growth incubated for overnight by disk diffusion method).
Type: functional, organism-based
In the case of `Nc1nc2[nH]c(-c3[nH]c4ccccc4c3C[C@@H]3NC(=O)[C@H](Cc4c[nH]c5ccccc45)NC3=O)nc2c(=O)[nH]1`, the Activity is reported as “inactive”.
With `Nc1nc2[nH]c(-c3[nH]c4ccccc4c3C[C@@H]3NC(=O)/C(=C/c4ccccc4)NC3=O)nc2c(=O)[nH]1` the Activity was “inactive”.
In the case of `Nc1nc2[nH]c(-c3[nH]c4ccccc4c3C[C@@H]3NC(=O)[C@H](Cc4ccc(O)cc4)NC3=O)nc2c(=O)[nH]1`, the Activity is reported as “inactive”.
With `Nc1nc2[nH]c(-c3[nH]c4ccccc4c3C[C@@H]3NC(=O)[C@H](Cc4ccccc4)NC3=O)nc2c(=O)[nH]1` the Activity was “inactive”.
In the case of `Nc1nc2[nH]c(-c3[nH]c4ccccc4c3C[C@@H]3NC(=O)/C(=C/c4ccc(O)cc4)NC3=O)nc2c(=O)[nH]1`, the Activity is reported as “inactive”.

Each compound was assayed on Niallia circulans (assay: Antibacterial activity against Bacillus circulans NRRLB-380 assessed as inhibition of bacterial growth incubated for overnight by disk diffusion method).
Type: functional, organism-based
`Nc1nc2[nH]c(-c3[nH]c4ccccc4c3C[C@@H]3NC(=O)[C@H](Cc4c[nH]c5ccccc45)NC3=O)nc2c(=O)[nH]1` was tested, and the Activity was “inactive”.
With `Nc1nc2[nH]c(-c3[nH]c4ccccc4c3C[C@@H]3NC(=O)/C(=C/c4ccccc4)NC3=O)nc2c(=O)[nH]1` the Activity was “inactive”.
`Nc1nc2[nH]c(-c3[nH]c4ccccc4c3C[C@@H]3NC(=O)[C@H](Cc4ccc(O)cc4)NC3=O)nc2c(=O)[nH]1` was tested, and the Activity was “inactive”.
`Nc1nc2[nH]c(-c3[nH]c4ccccc4c3C[C@@H]3NC(=O)[C@H](Cc4ccccc4)NC3=O)nc2c(=O)[nH]1` was tested, and the Activity was “inactive”.
`Nc1nc2[nH]c(-c3[nH]c4ccccc4c3C[C@@H]3NC(=O)/C(=C/c4ccc(O)cc4)NC3=O)nc2c(=O)[nH]1` was tested, and the Activity was “inactive”.

These compounds were tested on Bacillus subtilis (assay: Antibacterial activity against Bacillus subtilis NCIB3610 assessed as inhibition of bacterial growth incubated for overnight by disk diffusion method).
Type: functional, organism-based
In the case of `Nc1nc2[nH]c(-c3[nH]c4ccccc4c3C[C@@H]3NC(=O)[C@H](Cc4c[nH]c5ccccc45)NC3=O)nc2c(=O)[nH]1`, the Activity is reported as “inactive”.
`Nc1nc2[nH]c(-c3[nH]c4ccccc4c3C[C@@H]3NC(=O)/C(=C/c4ccccc4)NC3=O)nc2c(=O)[nH]1` was tested, and the Activity was “inactive”.
With `Nc1nc2[nH]c(-c3[nH]c4ccccc4c3C[C@@H]3NC(=O)[C@H](Cc4ccc(O)cc4)NC3=O)nc2c(=O)[nH]1` the Activity was “inactive”.
With `Nc1nc2[nH]c(-c3[nH]c4ccccc4c3C[C@@H]3NC(=O)[C@H](Cc4ccccc4)NC3=O)nc2c(=O)[nH]1` the Activity was “inactive”.
With `Nc1nc2[nH]c(-c3[nH]c4ccccc4c3C[C@@H]3NC(=O)/C(=C/c4ccc(O)cc4)NC3=O)nc2c(=O)[nH]1` the Activity was “inactive”.

The compounds below were run on Enterococcus faecalis (assay: Antibacterial activity against Enterococcus faecalis DSM2570 assessed as inhibition of bacterial growth incubated for overnight by disk diffusion method).
Type: functional, organism-based
For `Nc1nc2[nH]c(-c3[nH]c4ccccc4c3C[C@@H]3NC(=O)[C@H](Cc4c[nH]c5ccccc45)NC3=O)nc2c(=O)[nH]1`, the Activity was “inactive”.
In the case of `Nc1nc2[nH]c(-c3[nH]c4ccccc4c3C[C@@H]3NC(=O)/C(=C/c4ccccc4)NC3=O)nc2c(=O)[nH]1`, the Activity is reported as “inactive”.
With `Nc1nc2[nH]c(-c3[nH]c4ccccc4c3C[C@@H]3NC(=O)[C@H](Cc4ccc(O)cc4)NC3=O)nc2c(=O)[nH]1` the Activity was “inactive”.
For `Nc1nc2[nH]c(-c3[nH]c4ccccc4c3C[C@@H]3NC(=O)[C@H](Cc4ccccc4)NC3=O)nc2c(=O)[nH]1`, the Activity was “inactive”.
For `Nc1nc2[nH]c(-c3[nH]c4ccccc4c3C[C@@H]3NC(=O)/C(=C/c4ccc(O)cc4)NC3=O)nc2c(=O)[nH]1`, the Activity was “inactive”.

The compounds below were run on Escherichia coli (assay: Antibacterial activity against Escherichia coli DH5alpha assessed as inhibition of bacterial growth incubated for overnight by disk diffusion method).
Type: functional, organism-based
For `Nc1nc2[nH]c(-c3[nH]c4ccccc4c3C[C@@H]3NC(=O)[C@H](Cc4c[nH]c5ccccc45)NC3=O)nc2c(=O)[nH]1`, the Activity was “inactive”.
For `Nc1nc2[nH]c(-c3[nH]c4ccccc4c3C[C@@H]3NC(=O)/C(=C/c4ccccc4)NC3=O)nc2c(=O)[nH]1`, the Activity was “inactive”.
For `Nc1nc2[nH]c(-c3[nH]c4ccccc4c3C[C@@H]3NC(=O)[C@H](Cc4ccc(O)cc4)NC3=O)nc2c(=O)[nH]1`, the Activity was “inactive”.
For `Nc1nc2[nH]c(-c3[nH]c4ccccc4c3C[C@@H]3NC(=O)[C@H](Cc4ccccc4)NC3=O)nc2c(=O)[nH]1`, the Activity was “inactive”.
`Nc1nc2[nH]c(-c3[nH]c4ccccc4c3C[C@@H]3NC(=O)/C(=C/c4ccc(O)cc4)NC3=O)nc2c(=O)[nH]1` was tested, and the Activity was “inactive”.

What follows are compounds tested on Niallia circulans (assay: Antibacterial activity against Bacillus circulans NRRLB-14032 assessed as inhibition of bacterial growth incubated for overnight by disk diffusion method).
Type: functional, organism-based
With `Nc1nc2[nH]c(-c3[nH]c4ccccc4c3C[C@@H]3NC(=O)[C@H](Cc4c[nH]c5ccccc45)NC3=O)nc2c(=O)[nH]1` the Activity was “inactive”.
`Nc1nc2[nH]c(-c3[nH]c4ccccc4c3C[C@@H]3NC(=O)/C(=C/c4ccccc4)NC3=O)nc2c(=O)[nH]1` was tested, and the Activity was “inactive”.
`Nc1nc2[nH]c(-c3[nH]c4ccccc4c3C[C@@H]3NC(=O)[C@H](Cc4ccc(O)cc4)NC3=O)nc2c(=O)[nH]1` was tested, and the Activity was “inactive”.
`Nc1nc2[nH]c(-c3[nH]c4ccccc4c3C[C@@H]3NC(=O)[C@H](Cc4ccccc4)NC3=O)nc2c(=O)[nH]1` was tested, and the Activity was “inactive”.
In the case of `Nc1nc2[nH]c(-c3[nH]c4ccccc4c3C[C@@H]3NC(=O)/C(=C/c4ccc(O)cc4)NC3=O)nc2c(=O)[nH]1`, the Activity is reported as “inactive”.
